This data set in a line: pH of aqueous solution. The class given is physicochemical. As to conditions: 1% aqueous solution.

Counter-ions that a name gives are not always drawn.

Consider one molecule from patent publication US4879311A, “Derivatives of benzoyloxyacetic acid, and preparation and formulations thereof for therapeutic use” (Inverni della Beffa S.p.A., priority 1987, dated 1989).

For the molecule `Cc1ccc(Cl)c(Nc2ccccc2C(=O)OCC(=O)O)c1Cl` [Ic, d,l-lysine salt (Ic) of 2-[(2,6-dichloro-3-methylphenyl)-amino]benzoyloxyacetic acid], the “pH in 1% aqueous solution” value is 6.75.
